Data published in publication PMC7053212, “Auger radiopharmaceutical therapy targeting prostate-specific membrane antigen in a micrometastatic model of prostate cancer” (Theranostics, 2020).
“Also recorded” adds a separate entry of the source. Read-outs that look alike come from different tables or passages of the source.

How the values were obtained:
[1] = tested on: epidermal growth factor receptor-positive metastatic breast cancer; set-up: method as in PMID 24753984; conditions: activities up to 2.3 GBq; cited from earlier work
[2] = set-up: method as in PMID 27230930; conditions: cited from earlier work
[3] = tested on: PSMA-positive micrometastatic PC model; set-up: method as in PMID 27230930; conditions: 740 kBq; cited from earlier work
metastatic PC = tested on: metastatic PC; set-up: method as in PMID 23863050; conditions: cited from earlier work
[4] = Long-term biodistribution in normal tissues of non-tumor-bearing mice; format: in vivo, CD1 mice; conditions: 18.5 MBq iv, mean
Procedure: Comparison between tumor and kidney uptake was performed using Student's t-test.

[5] = Long-term toxicity evaluation and necropsy, non-tumor-bearing mice; format: in vivo, CD1 mice
Procedure: Urinalysis evaluating specific gravity and urine protein levels via dipstick (Chemstrip Test Strips, Roche Diagnostics) was performed monthly for each animal. Terminal clinical and anatomic pathology was done in the Johns Hopkins Phenotyping and Comparative Pathology Core. Assessments included serum metabolic panel, blood counts, and complete necropsy with histopathology of more than 30 tissues as described previously.

[6] = any activity up to 111 MBq, 12 months

In the case of “^111In-DTPA-hEGF: Auger RPT evaluated in a Phase I trial of epidermal growth factor receptor-positive metastatic breast cancer”, the MTD [1] is listed as “not reached”.

In the case of O=C(O)CC[C@H](NC(=O)NC(CCCCNC(=O)c1ccc([211At])cc1)C(=O)O)C(=O)O (stereo partly drawn) [^211At-PSMA-6, (2S)-2-(3-(1-carboxy-5-(4-^211At-astatobenzamido)pentyl)ureido)-pentanedioic acid], the “Maximum tolerated dose (MTD)” value ([2]; CD1 mice) is given as 37 kBq, the Dose-limiting toxicity [2] is given as “dose-limiting late nephrotoxicity” and the “Increase in median survival” value [3] is given as about 2 fold.

For [Cl][223Ra][Cl] [^223RaCl2], the Prolongation of survival (metastatic PC) is listed as 3 months.

In the case of O=C(O)CCC(NC(=O)NC(CCCCNC(=O)c1ccc([125I])cc1)C(=O)O)C(=O)O (stereo not shown) [^125I-DCIBzL], the “% Injected Dose/gram Bladder” value ([4]; 2 weeks) is reported as 0.15 % Injected Dose/gram, the “% Injected Dose/gram Blood” value ([4]; 2 weeks) is reported as 0.01 % Injected Dose/gram and the “% Injected Dose/gram Heart” value ([4]; 2 weeks) is reported as 0.05 % Injected Dose/gram. For the same molecule, the “% Injected Dose/gram Large intestine” value ([4]; 2 weeks) was 0.05 % Injected Dose/gram, the “% Injected Dose/gram Liver” value ([4]; 2 weeks) was 0.05 % Injected Dose/gram and the “% Injected Dose/gram Lung” value ([4]; 2 weeks) was 0.31 % Injected Dose/gram. The “% Injected Dose/gram Muscle” value ([4]; 2 weeks) was 0.05 % Injected Dose/gram, the “% Injected Dose/gram Pancreas” value ([4]; 2 weeks) was 0.07 % Injected Dose/gram and the “% Injected Dose/gram Salivary gland” value ([4]; 2 weeks) was 0.13 % Injected Dose/gram. The “% Injected Dose/gram Small intestine” value ([4]; 2 weeks) was 0.03 % Injected Dose/gram, the “% Injected Dose/gram Spleen” value ([4]; 2 weeks) was 0.77 % Injected Dose/gram and the “% Injected Dose/gram Stomach” value ([4]; 2 weeks) was 0.05 % Injected Dose/gram. For the same molecule, the “% Injected Dose/gram Bladder” value ([4]; 4 weeks) was 0.06 % Injected Dose/gram, the “% Injected Dose/gram Blood” value ([4]; 4 weeks) was 0.00 % Injected Dose/gram and the “% Injected Dose/gram Heart” value ([4]; 4 weeks) was 0.02 % Injected Dose/gram. The “% Injected Dose/gram Large intestine” value ([4]; 4 weeks) was 0.02 % Injected Dose/gram, the “% Injected Dose/gram Liver” value ([4]; 4 weeks) was 0.02 % Injected Dose/gram and the “% Injected Dose/gram Lung” value ([4]; 4 weeks) was 0.12 % Injected Dose/gram. For the same molecule, the “% Injected Dose/gram Muscle” value ([4]; 4 weeks) was 0.03 % Injected Dose/gram, the “% Injected Dose/gram Pancreas” value ([4]; 4 weeks) was 0.03 % Injected Dose/gram and the “% Injected Dose/gram Salivary gland” value ([4]; 4 weeks) was 0.05 % Injected Dose/gram. The “% Injected Dose/gram Small intestine” value ([4]; 4 weeks) was 0.02 % Injected Dose/gram, the “% Injected Dose/gram Spleen” value ([4]; 4 weeks) was 0.36 % Injected Dose/gram and the “% Injected Dose/gram Stomach” value ([4]; 4 weeks) was 0.02 % Injected Dose/gram. For the same molecule, the “% Injected Dose/gram Bladder” value ([4]; 6 weeks) was 0.04 % Injected Dose/gram, the “% Injected Dose/gram Blood” value ([4]; 6 weeks) was 0.00 % Injected Dose/gram and the “% Injected Dose/gram Heart” value ([4]; 6 weeks) was 0.01 % Injected Dose/gram. The “% Injected Dose/gram Large intestine” value ([4]; 6 weeks) was 0.02 % Injected Dose/gram, the “% Injected Dose/gram Liver” value ([4]; 6 weeks) was 0.01 % Injected Dose/gram and the “% Injected Dose/gram Lung” value ([4]; 6 weeks) was 0.05 % Injected Dose/gram. The “% Injected Dose/gram Muscle” value ([4]; 6 weeks) was 0.02 % Injected Dose/gram, the “% Injected Dose/gram Pancreas” value ([4]; 6 weeks) was 0.02 % Injected Dose/gram and the “% Injected Dose/gram Salivary gland” value ([4]; 6 weeks) was 0.02 % Injected Dose/gram. For the same molecule, the “% Injected Dose/gram Small intestine” value ([4]; 6 weeks) was 0.01 % Injected Dose/gram, the “% Injected Dose/gram Spleen” value ([4]; 6 weeks) was 0.10 % Injected Dose/gram and the “% Injected Dose/gram Stomach” value ([4]; 6 weeks) was 0.01 % Injected Dose/gram. For the same molecule, the “% Injected Dose/gram Bladder” value ([4]; 8 weeks) was 0.01 % Injected Dose/gram, the “% Injected Dose/gram Blood” value ([4]; 8 weeks) was 0.00 % Injected Dose/gram and the “% Injected Dose/gram Heart” value ([4]; 8 weeks) was 0.00 % Injected Dose/gram. The “% Injected Dose/gram Large intestine” value ([4]; 8 weeks) was 0.01 % Injected Dose/gram, the “% Injected Dose/gram Liver” value ([4]; 8 weeks) was 0.00 % Injected Dose/gram and the “% Injected Dose/gram Lung” value ([4]; 8 weeks) was 0.03 % Injected Dose/gram. For the same molecule, the “% Injected Dose/gram Muscle” value ([4]; 8 weeks) was 0.01 % Injected Dose/gram, the “% Injected Dose/gram Pancreas” value ([4]; 8 weeks) was 0.01 % Injected Dose/gram and the “% Injected Dose/gram Salivary gland” value ([4]; 8 weeks) was 0.01 % Injected Dose/gram. The “% Injected Dose/gram Small intestine” value ([4]; 8 weeks) was 0.01 % Injected Dose/gram, the “% Injected Dose/gram Spleen” value ([4]; 8 weeks) was 0.05 % Injected Dose/gram and the “% Injected Dose/gram Stomach” value ([4]; 8 weeks) was 0.00 % Injected Dose/gram. For the same molecule, the “% Injected Dose/gram Bladder” value ([4]; 10 weeks) was 0.00 % Injected Dose/gram, the “% Injected Dose/gram Blood” value ([4]; 10 weeks) was 0.00 % Injected Dose/gram and the “% Injected Dose/gram Heart” value ([4]; 10 weeks) was 0.00 % Injected Dose/gram. For the same molecule, the “% Injected Dose/gram Large intestine” value ([4]; 10 weeks) was 0.00 % Injected Dose/gram, the “% Injected Dose/gram Liver” value ([4]; 10 weeks) was 0.00 % Injected Dose/gram and the “% Injected Dose/gram Lung” value ([4]; 10 weeks) was 0.00 % Injected Dose/gram. The “% Injected Dose/gram Muscle” value ([4]; 10 weeks) was 0.00 % Injected Dose/gram, the “% Injected Dose/gram Pancreas” value ([4]; 10 weeks) was 0.00 % Injected Dose/gram and the “% Injected Dose/gram Salivary gland” value ([4]; 10 weeks) was 0.00 % Injected Dose/gram. For the same molecule, the “% Injected Dose/gram Small intestine” value ([4]; 10 weeks) was 0.00 % Injected Dose/gram, the “% Injected Dose/gram Spleen” value ([4]; 10 weeks) was 0.01 % Injected Dose/gram and the “% Injected Dose/gram Stomach” value ([4]; 10 weeks) was 0.00 % Injected Dose/gram. The “% Injected Dose/gram Bladder” value ([4]; 12 weeks) was 0.00 % Injected Dose/gram, the “% Injected Dose/gram Blood” value ([4]; 12 weeks) was 0.00 % Injected Dose/gram and the “% Injected Dose/gram Heart” value ([4]; 12 weeks) was 0.00 % Injected Dose/gram. The “% Injected Dose/gram Large intestine” value ([4]; 12 weeks) was 0.00 % Injected Dose/gram, the “% Injected Dose/gram Liver” value ([4]; 12 weeks) was 0.00 % Injected Dose/gram and the “% Injected Dose/gram Lung” value ([4]; 12 weeks) was 0.01 % Injected Dose/gram. The “% Injected Dose/gram Muscle” value ([4]; 12 weeks) was 0.00 % Injected Dose/gram, the “% Injected Dose/gram Pancreas” value ([4]; 12 weeks) was 0.00 % Injected Dose/gram and the “% Injected Dose/gram Salivary gland” value ([4]; 12 weeks) was 0.00 % Injected Dose/gram. For the same molecule, the “% Injected Dose/gram Small intestine” value ([4]; 12 weeks) was 0.00 % Injected Dose/gram, the “% Injected Dose/gram Spleen” value ([4]; 12 weeks) was 0.01 % Injected Dose/gram and the “% Injected Dose/gram Stomach” value ([4]; 12 weeks) was 0.00 % Injected Dose/gram. The “Average blood urea nitrogen” value ([5]; 111 MBq, necropsy at 12 months) was 14.5 mg/dL, the Average creatinine ([5]; 111 MBq, necropsy at 12 months) was 0.4 mg/dL and the “Maximum tolerated dose (MTD)” value ([5]; CD1 mice, 12 months) was “at least 111 MBq”. For the same molecule, the “Maximum tolerated dose (MTD)” value ([5]; activities up to 111 MBq iv, 12 months) was “not reached”, the Death from toxicity [5, 6] was “No mouse treated with any activity of ^125I-DCIBzL died from toxicity” and the “Long-term toxicity (weight, urinalysis, necropsy)” value [5, 6] was “no appreciable toxicity; also recorded: no acute or long-term toxicity was noted; also recorded: no long-term toxicities were noted”. The Renal histopathology ([5]; highest activities, 12 months) was “mild renal tubule epithelial hypertrophic changes with occasional atypia”, the “Average hemoglobin at necropsy” value ([5]; treated mice, 12 months) was 12.8 g/dL and the “Long-term hematologic toxicity (histopathology of spleen, bone marrow, lymph nodes)” value ([5]; treated mice, 12 months) was “not noted”. For the same molecule, the “Late nephropathy on necropsy” value ([5]; up to 111 MBq, 12 months) was “no evidence of late nephropathy” and the “Changes in body weight or urine protein levels” value ([5]; up to 111 MBq, 12 months, vs untreated) was “no consistent changes”.
